For the test, the system named is MMP-7 deficient corneal epithelial cells co-infected with CFB-EGSH-MMP-7 and FB-ERV retroviruses (ecdysone receptor). In words: Ponasterone A induction of MMP-7 expression in co-infected corneal epithelial cells (immunohistochemistry). The test is classed as cell-based, mouse. As to conditions: 10 μM ponasterone A; two days after induction; induced vs non-induced infected cells. The source says:
A cDNA encoding mouse pro matrix metalloproteinase-7 (MMP-7) was obtained from the I.M.A.G.E. clone consortium. Using a PCR-based cloning strategy, the cDNA was inserted into the multiple cloning site of pCFP-EGSH (a plasmid vector including retroviral packaging signals and a multiple cloning site downstream of an ecdysone hormone receptor responsive promoter) to make plasmid pCFB-EGSH-MMP-7. A second plasmid used in these experiments was pFB-ERV, a plasmid vector with retroviral packaging signals, and expressing the constituents of functional ecdysone hormone receptors capable of binding ponasterone A and activating the ecdysone responsive promoter in pCFP-EGSH.
Replication deficient retroviral supematants from pCGB-EGSH-MMP-7 and […] were produced separately. The plasmid for pCFB-EGSH-MMP-7 or pFB-EGSH was co-transfected using a liposomal method into HEK293 cells along with the plasmids pEnv (expressing a retroviral ecotropic envelope protein) and pGag-Pol (expressing the gag and pol genes required for assembly of infectious retroviral particles). […]
MMP-7 deficient corneal epithelial cells co-infected with CFB-EGSH-MMP-7 and FB-ERV replication deficient retroviruses were induced with 10 μM ponasterone A. an ecdysone analog and a ligand for the ecdysone receptor. […] Immunolocalization was determined using epifluorescence microscopy.

1 compound from patent US20050106729A1, “Gene transfer methods and compositions” (priority 2002, published 2005) can be followed below.

For `CC(C)CC[C@@H](O)[C@](C)(O)[C@H]1CC[C@@]2(O)C3=CC(=O)[C@@H]4C[C@@H](O)[C@@H](O)C[C@]4(C)[C@H]3CC[C@]12C` [ponasterone A], the “Expression of MMP-7 (immunolocalization, epifluorescence microscopy)” value was “Expression of MMP-7 was seen only in infected epithelial cells induced with ponasterone A”.
